Results as given in patent publication US20100267561A1, “HERBICIDAL PYRIDAZINONE DERIVATIVES” (priority 2007, published 2010).

Key:
Format in all cases: in vivo
[1] = test system: itchgrass (Rottboellia cochinchinensis); experiment: Test E pre-/postemergence plant response; settings: Postemergence, scale 0 to 100
Text: (§1) Seeds of plant species selected from bermudagrass (Cynodon dactylon), Surinam grass (Brachiaria decumbens), large crabgrass (Digitaria sanguinalis), green foxtail (Setaria viridis), goosegrass (Eleusine indica), johnsongrass (Sorghum halepense), kochia (Kochia scoparia), pitted morningglory (Ipomoea lacunosa), purple nutsedge (Cyperus rotundus), common ragweed (Ambrosia elation), black mustard (Brassica nigra), guineagrass (Panicum maximum), dallisgrass (Paspalum dilatatum), barnyardgrass (Echinochloa crus-galli), southern (S.) sandbur (Cenchrus echinatus), common sowthistle (Sonchus oleraceous), prickly sida (Sida spinosa), Italian ryegrass (Lolium multiflorum), common purslane (Portulaca oleracea), broadleaf signalgrass (Brachiaria platyphylla), common groundsel (Senecio vulgaris), common chickweed (Stellaria media), Virginia (V.) dayflower (Commelina virginica), tropical (T.) spiderwort (Commelina benghalensis), annual bluegrass (Poa annua), naked crabgrass (Digitaria nuda), itchgrass (Rottboellia cochinchinensis), quackgrass (Elytrigia repens), Canada horseweed (Conyza canadensis), field bindweed (Convolvulus arvensis), spanishneedles (Bidens bipinnata), common mallow (Malva sylvestris) and Russian thistle (Salsola kali) were planted and treated preemergence with test chemicals formulated in a non-phytotoxic solvent mixture which included a surfactant. At the same time, plants selected from these weed species were treated with postemergence applications of some of the test chemicals formulated in the same manner. Plants ranged in height from 2 to 18 cm (1- to 4-leaf stage) for postemergence treatments.
(§2) Treated plants and controls were maintained in a greenhouse for 14 to 21 days, after which time all species were compared to controls and visually evaluated. Plant response ratings, summarized in Table E, are based on a scale of 0 to 100 where 0 is no effect and 100 is complete control. A dash (-) response means no test result.

[2] = test system: common groundsel (Senecio vulgaris); experiment: Test E pre-/postemergence plant response; settings: Postemergence, scale 0 to 100
Text: as §1, §2

[3] = test system: black mustard (Brassica nigra); experiment: Test E pre-/postemergence plant response; settings: Postemergence, scale 0 to 100
Text: as §1, §2

[4] = test system: naked crabgrass (Digitaria nuda); experiment: Test E pre-/postemergence plant response; settings: Postemergence, scale 0 to 100
Text: as §1, §2

[5] = test system: bermudagrass (Cynodon dactylon); experiment: Test E pre-/postemergence plant response; settings: Postemergence, scale 0 to 100
Text: as §1, §2

[6] = test system: purple nutsedge (Cyperus rotundus); experiment: Test E pre-/postemergence plant response; settings: Postemergence, scale 0 to 100
Text: as §1, §2

[7] = test system: common purslane (Portulaca oleracea); experiment: Test E pre-/postemergence plant response; settings: Postemergence, scale 0 to 100
Text: as §1, §2

[8] = test system: goosegrass (Eleusine indica); experiment: Test E pre-/postemergence plant response; settings: Postemergence, scale 0 to 100
Text: as §1, §2

[9] = test system: southern (S.) sandbur (Cenchrus echinatus); experiment: Test E pre-/postemergence plant response; settings: Postemergence, scale 0 to 100
Text: as §1, §2

[10] = test system: annual bluegrass (Poa annua); experiment: Test E pre-/postemergence plant response; settings: Postemergence, scale 0 to 100
Text: as §1, §2

[11] = test system: spring wheat (Triticum aestivum); experiment: Test C pre-/postemergence plant response; settings: Preemergence
Method in brief: (§3)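 Plant response was judged by eye against untreated controls following 15 to 25 days in a controlled growth environment, using 0 for no effect and 100 for complete control. Treatments were made both preemergence and postemergence, the latter on plants of 1- to 4-leaf stage.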

[12] = test system: pigweed (Amaranthus retroflexus); experiment: Test C pre-/postemergence plant response; settings: Preemergence
Method in brief: as §3

[13] = 8 g ai/ha, scale 0 to 100 (0 no effect, 100 complete control)
[14] = 16 g ai/ha, scale 0 to 100 (0 no effect, 100 complete control)
[15] = 31 g ai/ha, scale 0 to 100 (0 no effect, 100 complete control)
[16] = 62 g ai/ha, scale 0 to 100, 0 no effect, 100 complete control

## Cc1cc(-c2ccc(Cl)cc2)nn1-c1c(OC(=O)Oc2ccccc2)cnn(C)c1=O [Compound 54]
[1]; 8 g ai/ha
  Plant response rating, Itchgrass: 10
[1]; 16 g ai/ha
  Plant response rating, Itchgrass: 90
[1]; 31 g ai/ha
  Plant response rating, Itchgrass: 95
[1]; 62 g ai/ha
  Plant response rating, Itchgrass: 100
[2]; 8 g ai/ha
  Plant response rating, Groundsel: 0
[2]; 16 g ai/ha
  Plant response rating, Groundsel: 0
[2]; 31 g ai/ha
  Plant response rating, Groundsel: 0
[3]; 8 g ai/ha
  Plant response rating, Mustard, Black: 0
[3]; 16 g ai/ha
  Plant response rating, Mustard, Black: 0
[3]; 31 g ai/ha
  Plant response rating, Mustard, Black: 0
[3]; 62 g ai/ha
  Plant response rating, Mustard, Black: 0
[4]; 8 g ai/ha
  Plant response rating, Crabgrass, Naked: 10
[4]; 16 g ai/ha
  Plant response rating, Crabgrass, Naked: 85
[4]; 31 g ai/ha
  Plant response rating, Crabgrass, Naked: 90
[4]; 62 g ai/ha
  Plant response rating, Crabgrass, Naked: 90
[5]; 8 g ai/ha
  Plant response rating, Bermudagrass: 10
[5]; 16 g ai/ha
  Plant response rating, Bermudagrass: 20
[5]; 31 g ai/ha
  Plant response rating, Bermudagrass: 40
[5]; 62 g ai/ha
  Plant response rating, Bermudagrass: 80
[6]; 8 g ai/ha
  Plant response rating, Nutsedge, Purple: 0
[6]; 16 g ai/ha
  Plant response rating, Nutsedge, Purple: 0
[6]; 31 g ai/ha
  Plant response rating, Nutsedge, Purple: 0
[6]; 62 g ai/ha
  Plant response rating, Nutsedge, Purple: 0
[7]; 8 g ai/ha
  Plant response rating, Purslane: 0
[7]; 16 g ai/ha
  Plant response rating, Purslane: 0
[7]; 31 g ai/ha
  Plant response rating, Purslane: 0
[7]; 62 g ai/ha
  Plant response rating, Purslane: 0
[8]; 8 g ai/ha
  Plant response rating, Goosegrass: 0
[8]; 16 g ai/ha
  Plant response rating, Goosegrass: 0
[8]; 31 g ai/ha
  Plant response rating, Goosegrass: 50
[8]; 62 g ai/ha
  Plant response rating, Goosegrass: 95
[9]; 8 g ai/ha
  Plant response rating, Sandbur, S.: 60
[9]; 16 g ai/ha
  Plant response rating, Sandbur, S.: 80
[9]; 31 g ai/ha
  Plant response rating, Sandbur, S.: 90
[9]; 62 g ai/ha
  Plant response rating, Sandbur, S.: 95
[10]; 8 g ai/ha
  Plant response rating, Bluegrass: 0
[10]; 16 g ai/ha
  Plant response rating, Bluegrass: 0
[10]; 31 g ai/ha
  Plant response rating, Bluegrass: 0
[10]; 62 g ai/ha
  Plant response rating, Bluegrass: 0
[11]; [13]
  Plant response rating, Wheat, Spring: 0
[11]; [14]
  Plant response rating, Wheat, Spring: 25
[11]; [15]
  Plant response rating, Wheat, Spring: 65
[11]; [16]
  Plant response rating, Wheat, Spring: 98
[12]; [13]
  Plant response rating, Pigweed: 0
[12]; [14]
  Plant response rating, Pigweed: 0
[12]; [15]
  Plant response rating, Pigweed: 0
[12]; [16]
  Plant response rating, Pigweed: 0
